We go through 19 compounds from US10947252B2, “Inhibitors of KEAP1-Nrf2 protein-protein interaction” (Janssen Pharmaceutica NV, priority 2018, dated 2021).

Structures are written as SMILES.

The subject of the assay is Glo-Response ARE-luc2P HEK293 cell line. Kind of assay: ARE luciferase reporter cell-based assay.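 Also: luciferase signal tracks Nrf2 activation of the ARE once compounds disrupt KEAP1-Nrf2 binding, read with One-Glo reagent, DMSO serving as low control.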 The following applies: Homo sapiens, HEK293, 24 h, average of results obtained. For orientation: Reporter assays use an easily measured gene product as a stand-in for the process of interest.
Description: The ARE assay utilizes a luciferase reporter cell line where the signal is proportional to NrF2 activation of the ARE. The cell line is commercially available from Promega and was prepared by stably transfecting HEK293 cells with a vector (pGL4.11) which contains the ARE response element upstream of a minimal promoter. The promoter drives expression of luc2 firefly luciferase gene. Upon disruption of KEAP1-Nrf2 binding by compound, Nrf2 translocates into the nucleus where it binds to the ARE and activates transcription of luciferase.
The materials used in this ARE assay are as follows: Glo-Response ARE-luc2P HEK293 cell line and One-Glo Luciferase Assay System were purchased from Promega (Madison, Wis.). Dulbecco's Modified Eagle medium ((DMEM), low glucose, GlutaMAX, pyruvate), fetal bovine serum (certified, heat inactivated), hygromycin B, Dulbecco's phosphate-buffered saline were purchased from Life Technologies (Grand Island, N.Y.). Penicillin, streptomycin solution (100×) and 0.05% trypsin-EDTA were purchased from Corning (Manassas, Va.). DMSO was purchased from EMD Millipore.
The ARE assay protocol is as follows: cells were maintained in growth medium (DMEM+10% FBS, 200 μg/mL hygromycin B, p-s) between 20-90% confluency by splitting twice per week. One day before the assay, cells were trypsinized, counted to determine viable cell count, and re-suspended in assay medium (DMEM+10% FBS, p-s) at 250,000 cells/mL. […] 100% DMSO was used as the low control. A 11-point dose series of the control compound was included on every plate. Compounds were spotted to an intermediate plate (Greiner #781280 V-bottom 384 well plate) using the Echo acoustic dispenser (Labscyte San Jose, Calif.). Spot size was 240 nL.
On the day of the assay, 60 mL per well of assay medium was added to the pre-spotted plate to make 2× compound stocks using the Combi (Thermo Waltham, Mass.). Compound and medium were mixed on the Janus and 20 mL of 2×compound stock was added to the cell plate which already contained 20 mL of assay medium from cell plating. […] The plates were returned to the tissue culture incubator for 24 hours.
The next day, luciferase activity was measured according to the manufacturer's protocol for One-Glo luciferase reagent. The plates were removed from the incubator and allowed to equilibrate to room temperature for 30 min. Forty microliters of One-Glo reagent (equilibrated to room temperature) was added per well using the Combi. The plates were mixed on an orbital shaker for 3 min. Luminescence was read on the BMG Pherastar multiplate reader (Cary, N.C.) using the luminescence protocol (1 sec interval).
The dose-response data were analyzed in Genedata Screener using 4PL nonlinear regression model. Raw luminescence counts as well as normalized values were used for data analysis.
For `CCCCNc1ccc2c(n1)OC1(CC1)CN(Cc1cc([C@H](CC(=O)O)c3ccn4c(C(F)(F)F)nnc4c3C)ccc1C)S2(=O)=O` (single isomer, unassigned) [Example 113, (*S)-3-(3-((7′-(Butylamino)-1′,1′-dioxidospiro[cyclopropane-1,4′-pyrido[2,3-b][1,4,5]oxathiazepin]-2′(3′H)-yl)methyl)-4-methylphenyl)-3-(8-methyl-3-(trifluoromethyl)-[1,2,4[triazolo[4,3-a]pyridine-7-yl)propanoic Acid], the midpoint of the response, the EC50, lay at 490 nM. The same measure for `Cc1ccc([C@@H](c2ccn3c(C(F)(F)F)nnc3c2C)C(C)(C)C(=O)O)cc1CN1CC2(CCOCC2)Oc2nc(NCCCO)ccc2S1(=O)=O` (single isomer, unassigned) [Example 115, (*S)-3-(3-((7′-((3-Hydroxypropyl)amino)-1′,1′-dioxido-2,3,5,6-tetrahydrospiro[pyran-4,4′-pyrido[2,3-b][1,4,5]oxathiazepin]-2′(3′H)-yl)methyl)-4-methylphenyl)-2,2-dimethyl-3-(8-methyl-3-(trifluoromethyl)-[1,2,4[triazolo[4,3-a]pyridine-7-yl)propanoic Acid]: 133 nM. Next, `Cc1ccc([C@H](c2ccn3c(C(F)(F)F)nnc3c2C)C(C)(C)C(=O)O)cc1CN1CC2(CCOCC2)Oc2nc(NCCCO)ccc2S1(=O)=O` (single isomer, unassigned) [Example 116, (*R)-3-(3-((7′-((3-Hydroxypropyl)amino)-1′,1′-dioxido-2,3,5,6-tetrahydrospiro[pyran-4,4′-pyrido[2,3-b][1,4,5]oxathiazepin]-2′(3′H)-yl)methyl)-4-methylphenyl)-2,2-dimethyl-3-(8-methyl-3-(trifluoromethyl)-[1,2,4[triazolo[4,3-a]pyridine-7-yl)propanoic Acid]: 991 nM; `Cc1ccc([C@@H](c2ccn3c(C(F)(F)F)nnc3c2C)C(C)(C)C(=O)O)cc1CN1CC2(CCOCC2)Oc2nc(OCCN3CCCCC3)ccc2S1(=O)=O` (single isomer, unassigned) [Example 127]: 11.8 nM; `CCn1nnc2c(C)c([C@@H](CC(=O)O)c3ccc(C)c(CN4C[C@H]5COCCN5c5ncccc5S4(=O)=O)c3)ccc21` (single isomer, unassigned) [Example 136, (*S)-3-(3-(((*S)-5,5-Dioxido-7a,8,10,11-tetrahydro-[1,4]oxazino[3,4-d]pyrido[2,3-f][1,2,5]thiadiazepin-6(7H)-yl)methyl)-4-methylphenyl)-3-(1-ethyl-4-methyl-1H-benzo[d][1,2,3]triazol-5-yl)propanoic Acid]: 8.3 nM.

`CCn1nnc2c(C)c([C@H](CC(=O)O)c3ccc(C)c(CN4C[C@H]5COCCN5c5ncccc5S4(=O)=O)c3)ccc21` (single isomer, unassigned) [Example 137, (*R)-3-(3-(((*S)-5,5-Dioxido-7a,8,10,11-tetrahydro-[1,4]oxazino[3,4-d]pyrido[2,3-f][1,2,5]thiadiazepin-6(7H)-yl)methyl)-4-methylphenyl)-3-(1-ethyl-4-methyl-1H-benzo[d][1,2,3]triazol-5-yl)propanoic Acid]: the EC50 (usually the concentration at which the effect is half-maximal) is 300 nM. The same measure for `CCn1nnc2c(C)c([C@@H](CC(=O)O)c3ccc(C)c(CN4C[C@@H]5COCCN5c5ncccc5S4(=O)=O)c3)ccc21` (single isomer, unassigned) [Example 139, (*S)-3-(3-(((*R)-5,5-Dioxido-7a,8,10,11-tetrahydro-[1,4]oxazino[3,4-d]pyrido[2,3-f][1,2,5]thiadiazepin-6(7H)-yl)methyl)-4-methylphenyl)-3-(1-ethyl-4-methyl-1H-benzo[d][1,2,3]triazol-5-yl)propanoic Acid]: 3.3 nM. Regarding `CCn1nnc2c(C)c([C@H](CC(=O)O)c3ccc(C)c(CN4C[C@@H]5COCCN5c5ncccc5S4(=O)=O)c3)ccc21` (single isomer, unassigned) [Example 140, (*R)-3-(3-(((*R)-5,5-Dioxido-7a,8,10,11-tetrahydro-[1,4]oxazino[3,4-d]pyrido[2,3-f][1,2,5]thiadiazepin-6(7H)-yl)methyl)-4-methylphenyl)-3-(1-ethyl-4-methyl-1H-benzo[d][1,2,3]triazol-5-yl)propanoic Acid], it took 19 nM to reach a half-maximal effect (EC50).

With `CCn1nnc2c(C)c([C@@H](CC(=O)O)c3ccc(C)c(CN4C[C@@H]5CCCCN5c5ncccc5S4(=O)=O)c3)ccc21` (single isomer, unassigned) [Example 142, (*S)-3-(3-(((*S)-5,5-Dioxido-7,7a,8,9,10,11-hexahydro-6H-dipyrido[2,1-d:2′,3′-f][1,2,5]thiadiazepin-6-yl)methyl)-4-methylphenyl)-3-(1-ethyl-4-methyl-1H-benzo[d][1,2,3]triazol-5-yl)propanoic Acid], the EC50 was determined as 1.1 nM. The same measure for `CCn1nnc2c(C)c([C@H](CC(=O)O)c3ccc(C)c(CN4C[C@@H]5CCCCN5c5ncccc5S4(=O)=O)c3)ccc21` (single isomer, unassigned) [Example 143, (*R)-3-(3-(((*S)-5,5-Dioxido-7,7a,8,9,10,11-hexahydro-6H-dipyrido[2,1-d:2′,3′-f][1,2,5]thiadiazepin-6-yl)methyl)-4-methylphenyl)-3-(1-ethyl-4-methyl-1H-benzo[d][1,2,3]triazol-5-yl)propanoic Acid]: 45 nM; for `CCn1nnc2c(C)c([C@@H](CC(=O)O)c3ccc(C)c(CN4C[C@H]5CCCCN5c5ncccc5S4(=O)=O)c3)ccc21` (single isomer, unassigned) [Example 145, (*S)-3-(3-(((*R)-5,5-Dioxido-7,7a,8,9,10,11-hexahydro-6H-dipyrido[2,1-d:2′,3′-f][1,2,5]thiadiazepin-6-yl)methyl)-4-methylphenyl)-3-(1-ethyl-4-methyl-1H-benzo[d][1,2,3]triazol-5-yl)propanoic Acid]: 1.1 nM; for `CCn1nnc2c(C)c([C@H](CC(=O)O)c3ccc(C)c(CN4C[C@H]5CCCCN5c5ncccc5S4(=O)=O)c3)ccc21` (single isomer, unassigned) [Example 146, (*R)-3-(3-(((*R)-5,5-Dioxido-7,7a,8,9,10,11-hexahydro-6H-dipyrido[2,1-d:2′,3′-f][1,2,5]thiadiazepin-6-yl)methyl)-4-methylphenyl)-3-(1-ethyl-4-methyl-1H-benzo[d][1,2,3]triazol-5-yl)propanoic Acid]: 4.2 nM.

`CCn1nnc2c(C)c([C@@H](CC(=O)O)c3ccc(C)c(CN4C[C@H]5CCCN5c5ccccc5S4(=O)=O)c3)ccc21` (single isomer, unassigned) [Example 153, (*S)-3-(3-(((R)-5,5-Dioxido-7a,8,9,10-tetrahydrobenzo[f]pyrrolo[2,1-d][1,2,5]thiadiazepin-6(7H)-yl)methyl)-4-methylphenyl)-3-(1-ethyl-4-methyl-1H-benzo[d][1,2,3]triazol-5-yl)propanoic Acid] registered a 50% effective concentration (EC50) of 3 nM. This EC50 and that of the compound before are within 1.5-fold of each other.

`CCn1nnc2c(C)c([C@H](CC(=O)O)c3ccc(C)c(CN4C[C@H]5CCCN5c5ccccc5S4(=O)=O)c3)ccc21` (single isomer, unassigned) [Example 154, (*R)-3-(3-(((R)-5,5-Dioxido-7a,8,9,10-tetrahydrobenzo[f]pyrrolo[2,1-d][1,2,5]thiadiazepin-6(7H)-yl)methyl)-4-methylphenyl)-3-(1-ethyl-4-methyl-1H-benzo[d][1,2,3]triazol-5-yl)propanoic Acid] showed a concentration giving a half-maximal response (EC50) of 59 nM. Next, `CCn1nnc2c(C)c([C@@H](CC(=O)O)c3ccc(C)c(CN4CC(C)(C)Oc5ccccc5S4(=O)=O)c3)ccc21` (single isomer, unassigned) [Example 158, (*S)-3-(3-((4,4-Dimethyl-1,1-dioxido-3,4-dihydro-2H-benzo[b][1,4,5]oxathiazepin-2-yl)methyl)-4-methylphenyl)-3-(1-ethyl-4-methyl-1H-benzo[d][1,2,3]triazol-5-yl)propanoic Acid]: 6.2 nM. Next, `CCn1nnc2c(C)c([C@H](CC(=O)O)c3ccc(C)c(CN4CC(C)(C)Oc5ccccc5S4(=O)=O)c3)ccc21` (single isomer, unassigned) [Example 159, (*R)-3-(3-((4,4-Dimethyl-1,1-dioxido-3,4-dihydro-2H-benzo[b][1,4,5]oxathiazepin-2-yl)methyl)-4-methylphenyl)-3-(1-ethyl-4-methyl-1H-benzo[d][1,2,3]triazol-5-yl)propanoic Acid]: 34 nM; `Cc1ccc([C@H](CC(=O)O)c2ccc3c(nnn3C3CC3)c2C)cc1CN1CC2(CC2)N(C)c2ncccc2S1(=O)=O` (single isomer, unassigned) [Example 225, (*S)-3-(1-Cyclopropyl-4-methyl-1H-benzo[d][1,2,3]triazol-5-yl)-3-(4-methyl-3-((5′-methyl-1′,1′-dioxido-5′H-spiro[cyclopropane-1,4′-pyrido[2,3-f][1,2,5]thiadiazepin]-2′(3′H)-yl)methyl)phenyl)propanoic Acid]: 5 nM. The compound `Cc1ccc([C@@H](CC(=O)O)c2ccn3c(C(F)(F)F)nnc3c2C)cc1CN1C[C@H]2COCCN2c2ncccc2S1(=O)=O` (single isomer, unassigned) [Example 263, (*R)-3-(3-(((*S)-5,5-Dioxido-7a,8,10,11-tetrahydro-[1,4]oxazino[3,4-d]pyrido[2,3-f][1,2,5]thiadiazepin-6(7H)-yl)methyl)-4-methylphenyl)-3-(8-methyl-3-(trifluoromethyl)-[1,2,4]triazolo[4,3-a]pyridin-7-yl)propanoic Acid] displayed a concentration giving a half-maximal response (EC50) of 1160 nM. The same measure for `Cc1ccc([C@@H](c2ccn3c(C(F)(F)F)nnc3c2C)C(C)(C)C(=O)O)cc1CN1CC2(CCNCC2)Oc2ncccc2S1(=O)=O` (single isomer, unassigned) [Example 336, (*S)-3-(3-((1′,1′-Dioxidospiro[piperidine-4,4′-pyrido[2,3-b][1,4,5]oxathiazepin]-2′(3′H)-yl)methyl)-4-methylphenyl)-2,2-dimethyl-3-(8-methyl-3-(trifluoromethyl)-[1,2,4]triazolo[4,3-a]pyridin-7-yl)propanoic Acid]: 1830 nM.
